Test results: patent publication US20240246981A1, “[…] DERIVATIVES AS INHIBITORS OF […]-PEPTIDE CYCLOTRANSFERASE AND […]-PEPTIDE CYCLOTRANSFERASE LIKE PROTEIN” (Boehringer Ingelheim International GmbH, priority 2022, published 2024)
Like-named read-outs stand apart in the source and are kept apart here.

What was measured:
[1] = tested on: SIRPα signalling induced by A549 cells; experiment: Assay B: SIRPα signalling assay using A549 cells; assay type: cell-based, human; details: Homo sapiens
Description: Two cell types are independently used: the Raji cell line (lymphoblastlike human cell line derived from B lymphocytes from a Burkitt's lymphoma patient in 1963) and A549 cells (adenocarcinomic human alveolar basal epithelial cells).
Test compounds were dissolved in 100% DMSO and serially diluted into a white 384-well microtiter cell culture plate (PerkinElmer #60076780 in case of Raji assay; PDL-coated plates Greiner #781945 in case of A549 assay). 5000 Raji cells (ATCC #CC86) or 5000 A549 cells (ATCC #CCL-185) in Assay Complete Cell Plating reagent 30 (DiscoverX 93-0563R30B) were added per well. The assay plate was incubated for 48 h at 37° C., 95% humidity and 5% CO2. 15000 reporter cells (Jurkat PathHunter SIRPα V1, DiscoverX #93-1135C19) were added to each well, and the plate was incubated for 5 h at 37° C., 95% humidity and 5% CO2. Bioassay reagent 1 of the PathHunter Bioassay detection kit (DiscoverX 93-0001) was added to each well of the plate using a multichannel pipette followed by a 15 min incubation at room temperature. Afterwards bioassay reagent 2 was added followed by 60 min incubation at room temperature (incubation in the dark).
The analysis of the data was performed using the luminescence signal generated by beta-galactosidase in the PathHunter reporter cell line. The luminescence measurement was done using a Pherastar Multi-Mode Reader. Dose-response curves & IC50 data were calculated with 4-parameter sigmoidal dose response formula.

[2] = Assay C: permeability in CACO-2 cells; assay type: in vitro ADME; details: human, pH 7.2; for Papp A→B at 2 h / Papp A→B: Caco-2, apical to basolateral; for efflux ratio at 2 h / efflux ratio: Caco-2
Description: Compounds are dissolved in appropriate solvent (like DMSO, 1-20 mM stock solutions). […] The transport solution (TL) is applied to the apical or basolateral donor side for measuring A-B or B-A permeability (3 filter replicates), respectively. Samples are collected at the start and end of experiment from the donor and at various time intervals for up to 2 hours also from the receiver side for concentration measurement by HPLC-MS/MS or scintillation counting. Sampled receiver volumes are replaced with fresh receiver solution.

[3] = tested on: SIRPα signalling induced by Raji cells; experiment: Assay B: SIRPα signalling assay using Raji cells; assay type: cell-based, human; details: Homo sapiens
Description: Bioassay reagent 1 of the PathHunter Bioassay detection kit (DiscoverX 93-0001) was added to each well of the plate using a multichannel pipette followed by a 15 min incubation at room temperature. Afterwards bioassay reagent 2 was added followed by 60 min incubation at room temperature (incubation in the dark).
The analysis of the data was performed using the luminescence signal generated by beta-galactosidase in the PathHunter reporter cell line. The luminescence measurement was done using a Pherastar Multi-Mode Reader.

QPCT = QPCT (Homo sapiens (Human), UniProt Q16769); experiment: Assay A: biochemical QPCT activity assay (MALDI-TOF MS); details: compounds of the invention, Table 2; read-out: Inhibition of QPCT: IC50
Description: (§1) QPCT or QPCTL dependent conversion of N-terminal glutamine to pyroglutamate of CD47 was monitored via MALDI-TOF MS. Test compounds were dissolved in 100% DMSO and serially diluted into clear 1,536-well microtiter plates. Enzymatic reactions were set up in assay buffer containing 20 mM Tris pH 7.5, 0.1 mM TCEP, 0.01% BSA, and 0.001% Tween20. […] The plates were incubated for 10 min in a humidified incubator at 24° C. Subsequently, 2.5 μL of CD47 peptide substrate surrogate (^19[…]^33) was added to each well (final concentration: 10 μM for QPCTL/20 μM for QPCT). The plates were mixed for 30 sec at 1,000 rpm and subsequently incubated for 40 min in a humidified incubator at 24° C. […] The plates were sealed with an adhesive foil, mixed for 30 s at 1,000 rpm and stored at room temperature until preparation of the MALDI target plates. […] QPCT or QPCTL activity was monitored by calculating the ratio between product and internal standard signals followed by normalization to high (100% activity) and low (0% activity) controls. Determination of compound potencies was obtained by fitting the dose-response data to a four-parameter logistical equation.

QPCTL = QPCTL (Homo sapiens (Human), UniProt Q9NXS2); experiment: Assay A: biochemical QPCTL activity assay (MALDI-TOF MS); details: compounds of the invention, Table 2; read-out: Inhibition of QPCTL: IC50
Description: as §1

[4] = compounds of the invention, Table 4, read-out: Inhibition of SIRα signalling induced by A549 cells: IC50
[5] = compounds of the invention, Table 7
[6] = compounds of the invention, Table 4, read-out: Inhibition of SIRα signalling induced by Raji cells: IC50

QPCTL, sequence (Q9NXS2 whole entry): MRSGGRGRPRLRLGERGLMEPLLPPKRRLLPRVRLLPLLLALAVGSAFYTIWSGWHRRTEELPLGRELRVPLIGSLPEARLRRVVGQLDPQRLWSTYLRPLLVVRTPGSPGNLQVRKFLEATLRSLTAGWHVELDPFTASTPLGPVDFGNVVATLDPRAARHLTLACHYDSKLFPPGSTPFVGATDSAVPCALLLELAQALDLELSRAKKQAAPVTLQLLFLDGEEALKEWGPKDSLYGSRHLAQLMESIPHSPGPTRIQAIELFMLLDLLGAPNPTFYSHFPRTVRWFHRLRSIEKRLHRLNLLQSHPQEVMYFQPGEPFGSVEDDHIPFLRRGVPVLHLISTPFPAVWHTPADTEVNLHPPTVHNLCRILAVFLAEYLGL
QPCT, sequence (Q16769 29-361): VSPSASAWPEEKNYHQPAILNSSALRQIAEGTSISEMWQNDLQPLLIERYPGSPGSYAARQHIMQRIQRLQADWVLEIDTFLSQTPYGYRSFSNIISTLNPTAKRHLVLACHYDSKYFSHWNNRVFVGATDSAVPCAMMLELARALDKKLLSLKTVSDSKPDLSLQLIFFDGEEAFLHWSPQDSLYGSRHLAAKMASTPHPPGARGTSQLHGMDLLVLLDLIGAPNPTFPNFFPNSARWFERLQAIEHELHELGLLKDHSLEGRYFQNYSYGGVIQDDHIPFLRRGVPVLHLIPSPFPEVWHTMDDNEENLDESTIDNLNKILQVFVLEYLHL

Structure (SMILES)	IC50 [1, 4] [µM]	Papp A→B at 2 h [2, 5] [nm/s]	IC50 [3, 6] [µM]	efflux ratio at 2 h [2, 5]	Papp A→B [2, 5] [nm/s]	efflux ratio [2, 5]	IC50 (QPCT) [µM]	IC50 (QPCTL) [µM]	IC50 ([1]; prior art compounds, Table 5, read-out: Inhibition of SIRPα signalling induced by A549 cells: IC50) [µM]	IC50 ([3]; prior art compounds, Table 5, read-out: Inhibition of SIRPα signalling induced by Raji cells: IC50) [µM]	Papp A→B at 2 h ([2]; prior art compounds, Table 8) [nm/s]
Cn1cnnc1C1CCN(c2c(C#N)cccc2-c2ccc(F)nc2)CC1 [Example 1]	0.009	280	–	–	–	–	–	–	–	–	–
Cn1cnnc1C1CCN(c2c(C#N)cccc2-c2cnc(F)c(OC3CCC3)c2)CC1 [Example 34]	0.025	220	0.052	3.3	–	–	–	–	–	–	–
Cn1cnnc1C1CCN(c2c(C#N)cccc2-c2cnc(F)c(OC(F)F)c2)CC1 [Example 37]	0.113	230	0.325	2	–	–	–	–	–	–	–
Cn1cnnc1C1CCN(c2c(C#N)cccc2-c2cnc(F)c(Oc3ccccc3)c2)CC1 [Example 38]	0.098	200	0.372	1.9	–	–	–	–	–	–	–
Cn1cnnc1C1CCN(c2c(C#N)cccc2-c2cnc3nn(C)c(C(F)(F)F)c3c2)CC1 [Example 41]	0.097	29	0.088	–	–	–	–	–	–	–	–
Cn1cnnc1C1(F)CCN(c2c(C#N)cccc2-c2cnc3nn(CC(F)(F)F)cc3c2)CC1 [Example 55]	0.044	14	0.038	40	–	–	–	–	–	–	–
Cn1cnnc1C1(F)CCN(c2c(C#N)cccc2-c2cnc(=O)n(C)c2)CC1 [Example 58]	0.249	< 3	0.493	> 4.3	–	–	–	–	–	–	–
Cn1cnnc1C1(C)CCN(c2c(C#N)cccc2-c2cccnc2)CC1 [Example 65]	–	98	1.04	4.9	–	–	–	–	–	–	–
Cn1cnnc1C1CCN(c2c(C#N)cccc2-c2cnsc2)CC1 [compound 2]	0.04	–	0.715	–	250	1.8	0.051	0.012	–	–	–
Cc1cc(F)ncc1-c1cccc(C#N)c1N1CCC(c2nncn2C)CC1 [compound 4]	0.013	–	0.088	–	160	4.1	0.012	0.002	–	–	–
Cc1cc(-c2cccc(C#N)c2N2CCC(c3nncn3C)CC2)cnc1F [compound 5]	0.026	–	0.093	–	230	1.6	0.012	0.003	–	–	–
Cn1cnnc1C1CCN(c2c(C#N)cccc2-c2cnc3nonc3c2)CC1 [compound 7]	0.067	–	0.17	–	15	19.3	0.012	0.002	–	–	–
Cc1ccncc1-c1cccc(C#N)c1N1CCC(c2nncn2C)CC1 [compound 8]	0.348	–	0.257	–	39	9.5	0.031	0.006	–	–	–
Cn1cnnc1C1CCN(c2c(C#N)cccc2-c2cncc(CO)c2)CC1 [compound 9]	–	–	0.309	–	–	–	0.038	0.011	–	–	–
CC#Cc1cncc(-c2cccc(C#N)c2N2CCC(c3nncn3C)CC2)c1 [compound 10]	0.348	–	0.692	–	250	2.2	0.075	0.018	–	–	–
Cc1cncc(-c2cccc(C#N)c2N2CCC(c3nncn3C)CC2)c1 [compound 11]	0.436	–	0.372	–	86	7.7	0.128	0.021	–	–	–

Structure (SMILES)	IC50 [1, 4] [µM]	Papp A→B at 2 h [2, 5] [nm/s]	IC50 [3, 6] [µM]	efflux ratio at 2 h [2, 5]	Papp A→B [2, 5] [nm/s]	efflux ratio [2, 5]	IC50 (QPCT) [µM]	IC50 (QPCTL) [µM]	IC50 ([1]; prior art compounds, Table 5, read-out: Inhibition of SIRPα signalling induced by A549 cells: IC50) [µM]	IC50 ([3]; prior art compounds, Table 5, read-out: Inhibition of SIRPα signalling induced by Raji cells: IC50) [µM]	Papp A→B at 2 h ([2]; prior art compounds, Table 8) [nm/s]
Cn1cnnc1C1CCN(c2c(C#N)cccc2-c2cnc3c(c2)CCCO3)CC1 [compound 12]	0.243	–	0.421	–	27	23.7	0.057	0.012	–	–	–
Cn1cnnc1C1CCN(c2c(C#N)cccc2-c2cncnc2)CC1 [compound 13]	0.165	–	0.782	–	16	11.9	0.052	0.015	–	–	–
Cn1cnnc1C1CCN(c2c(C#N)cccc2-c2cncc(C(N)=O)c2)CC1 [compound 14]	–	–	0.761	–	1	50.9	0.021	0.003	–	–	–
Cn1cnnc1C1CCN(c2c(C#N)cccc2-c2cncc(C3CC3)c2)CC1 [compound 15]	0.303	–	0.736	–	103	8.7	0.105	0.028	–	–	–
COc1cncc(-c2cccc(C#N)c2N2CCC(c3nncn3C)CC2)c1 [compound 16]	0.332	–	0.625	–	45	12.2	0.086	0.022	–	–	–
Cn1cnnc1C1CCN(c2c(C#N)cccc2-c2cncc(F)c2)CC1 [compound 17]	0.199	–	1.17	–	73	7.4	0.077	0.015	–	–	–
Cn1cnnc1C1CCN(c2c(C#N)cccc2-c2ccc(Cl)nc2)CC1 [compound 18]	0.294	–	2.27	–	136	5	0.357	0.056	–	–	–
CC(C)Oc1cc(-c2cccc(C#N)c2N2CCC(c3nncn3C)CC2)cnc1F [compound 19]	0.018	–	0.053	–	390	2	0.009	0.001	–	–	–
Cn1cnnc1C1CCN(S(=O)(=O)c2cccc(Nc3ccc(F)nc3)c2)CC1 [compound 21, reference compound]	–	–	–	–	–	–	–	–	> 10	> 10	7
Cn1cnnc1C1CCN(c2c(C#N)cccc2-c2cncc(-c3ccccc3)c2)CC1 [compound 21, reference compound]	0.53	330	1.32	2.8	–	–	–	–	–	–	–
Cn1cnnc1C1CCN(c2c(C#N)cccc2-c2cncc(OC(F)F)c2)CC1 [compound 23, reference compound]	0.342	101	1.07	7.1	–	–	–	–	–	–	–
COC(=O)c1cncc(-c2cccc(C#N)c2N2CCC(c3nncn3C)CC2)c1 [compound 27]	–	–	0.483	–	44	13.4	0.1	0.015	–	–	–
Cn1cnnc1C1(F)CCN(c2c(C#N)cccc2-c2cnc(O)nc2)CC1 [compound 54]	0.205	–	0.851	–	1	11.1	0.001	–	–	–	–
Cn1cnnc1C1(F)CCN(c2c(C#N)cccc2-c2cnc3nn(CC(F)F)cc3c2)CC1 [compound 60]	0.016	–	0.017	–	5	100	0.001	–	–	–	–
Cn1cnnc1C1(F)CCN(c2c(C#N)cccc2-c2cnc3nc(C(C)(C)C)[nH]c3c2)CC1 [compound 69]	0.01	–	0.011	–	5	56.9	–	–	–	–	–
